According to ChEMBL document CHEMBL1201862, “PubChem BioAssay data set” (2004):
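Briefly, cells in 96-well plates were exposed to five compound concentrations for 48 h, and endpoints were estimated by linear interpolation. The concentration for 50% growth inhibition is given as GI50.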 Calls of active or inactive are those of the source. Cut-off read from the data, not from the text of the source: active = GI50 up to about 1.1 µM and inactive = higher.

Assays:
Test in all cases: NCI tumour cell line growth inhibition, 48 h
NCI-H522 = system: NCI-H522
DMS-114 = system: DMS-114
TK-10 = system: TK-10
SW-620 = system: SW-620
A498 = system: A498
HOP-62 = system: HOP-62
OVCAR-5 = system: OVCAR-5
HOP-18 = system: HOP-18
NCI/ADR-RES = system: NCI/ADR-RES
KM-20L2 = system: KM-20L2
XF498 = system: XF498
UO-31 = system: UO-31
OVCAR-3 = system: OVCAR-3
IGROV-1 = system: IGROV-1
MOLT-4 = system: MOLT-4
SNB-78 = system: SNB-78
SR = system: SR
DLD-1 = system: DLD-1
BT-549 = system: BT-549
K562 = system: K562
MDA-N = system: MDA-N
HCC 2998 = system: HCC 2998
SN12C = system: SN12C
SNB-19 = system: SNB-19
T47D = system: T47D
Hs-578T = system: Hs-578T
Malme-3M = system: Malme-3M
SK-OV-3 = system: SK-OV-3
HT-29 = system: HT-29
SF-268 = system: SF-268
UACC-257 = system: UACC-257
DMS-273 = system: DMS-273
MCF7 = system: MCF7
UACC-62 = system: UACC-62
KM12 = system: KM12
SF-295 = system: SF-295
MDA-MB-231 = system: MDA-MB-231
HOP-92 = system: HOP-92
NCI-H23 = system: NCI-H23
OVCAR-8 = system: OVCAR-8
HCT-116 = system: HCT-116
U-251 = system: U-251
ACHN = system: ACHN
EKVX = system: EKVX
SK-MEL-28 = system: SK-MEL-28
NCI-H460 = system: NCI-H460
CAKI-1 = system: CAKI-1
PC-3 = system: PC-3
RPMI-8226 = system: RPMI-8226
MDA-MB-435 = system: MDA-MB-435
CCRF-CEM = system: CCRF-CEM
LOX IMVI = system: LOX IMVI
786-0 = system: 786-0
HL-60 = system: HL-60
SF-539 = system: SF-539
SK-MEL-2 = system: SK-MEL-2
HCT-15 = system: HCT-15
M14 = system: M14
OVCAR-4 = system: OVCAR-4
SK-MEL-5 = system: SK-MEL-5
A549 = system: A549
M19-MEL = system: M19-MEL
SNB-75 = system: SNB-75
DU-145 = system: DU-145
RXF 393 = system: RXF 393
COLO 205 = system: COLO 205
NCI-H226 = system: NCI-H226
LXFL 529 = system: LXFL 529

C=C1[C@@H](C)[C@H]2[C@H](Cc3ccccc3)NC(=O)[C@]23OC(=O)/C=C/[C@H](O)CCC[C@@H](C)C/C=C/[C@H]3[C@@H]1O
GI50 (NCI-H522): 9.23 µM (inactive)
GI50 (DMS-114): 14.5 µM (inactive)
GI50 (TK-10): 4.06 µM (inactive)
GI50 (SW-620): 23.2 µM (inactive)
GI50 (A498): 1.83 µM (inactive)
GI50 (HOP-62): 0.605 µM (active)
GI50 (OVCAR-5): 32.2 µM (inactive)
GI50 (HOP-18): 0.156 µM (active)
GI50 (NCI/ADR-RES): 20.3 µM (inactive)
GI50 (KM-20L2): 15.2 µM (inactive)
GI50 (XF498): 0.571 µM (active)
GI50 (UO-31): 0.258 µM (active)
GI50 (OVCAR-3): 7.48 µM (inactive)
GI50 (IGROV-1): 6.59 µM (inactive)
GI50 (MOLT-4): 4.04 µM (inactive)
GI50 (SNB-78): 1.03 µM (active)
GI50 (SR): > 100 µM (inactive)
GI50 (DLD-1): 0.828 µM (active)
GI50 (BT-549): 15.4 µM (inactive)
GI50 (K562): 9.18 µM (inactive)
GI50 (MDA-N): 14.2 µM (inactive)
GI50 (HCC 2998): 50 µM (inactive)
GI50 (SN12C): 3.87 µM (inactive)
GI50 (SNB-19): 5.66 µM (inactive)
GI50 (T47D): 2.92 µM (inactive)
GI50 (Hs-578T): 5.89 µM (inactive)
GI50 (Malme-3M): 16.3 µM (inactive)
GI50 (SK-OV-3): 32.6 µM (inactive)
GI50 (HT-29): 5.82 µM (inactive)
GI50 (SF-268): 2.55 µM (inactive)
GI50 (UACC-257): 9.62 µM (inactive)
GI50 (DMS-273): 8.93 µM (inactive)
GI50 (MCF7): 16.6 µM (inactive)
GI50 (UACC-62): 22.8 µM (inactive)
GI50 (KM12): 53.3 µM (inactive)
GI50 (SF-295): 0.979 µM (active)
GI50 (MDA-MB-231): 5.31 µM (inactive)
GI50 (HOP-92): 0.436 µM (active)
GI50 (NCI-H23): 7 µM (inactive)
GI50 (OVCAR-8): 5.43 µM (inactive)
GI50 (HCT-116): 8.41 µM (inactive)
GI50 (U-251): 2.08 µM (inactive)
GI50 (ACHN): 4.4 µM (inactive)
GI50 (EKVX): 10.7 µM (inactive)
GI50 (SK-MEL-28): 12.8 µM (inactive)
GI50 (NCI-H460): 2.62 µM (inactive)
GI50 (CAKI-1): 0.233 µM (active)
GI50 (PC-3): 3.76 µM (inactive)
GI50 (RPMI-8226): 1.82 µM (inactive)
GI50 (MDA-MB-435): 21.8 µM (inactive)
GI50 (CCRF-CEM): 2.37 µM (inactive)
GI50 (LOX IMVI): 0.486 µM (active)
GI50 (786-0): 7.62 µM (inactive)
GI50 (HL-60): 16.1 µM (inactive)
GI50 (SF-539): 0.465 µM (active)
GI50 (SK-MEL-2): 24.2 µM (inactive)
GI50 (HCT-15): 0.619 µM
GI50 (M14): > 100 µM (inactive)
GI50 (OVCAR-4): 8.67 µM (inactive)
GI50 (SK-MEL-5): 9.53 µM (inactive)
GI50 (A549): 2.85 µM (inactive)
GI50 (M19-MEL): 45.8 µM (inactive)
GI50 (SNB-75): 0.0748 µM (active)
GI50 (DU-145): 30.1 µM (inactive)
GI50 (RXF 393): 0.94 µM (active)
GI50 (COLO 205): 0.713 µM (active)
GI50 (NCI-H226): 1.18 µM (inactive)

O=C(Cc1ccccc1)NN1C(=O)C(Cl)C1c1ccccc1O (stereo not given)
GI50 (NCI-H522): 3.27 µM (inactive)
GI50 (DMS-114): 4.46 µM (inactive)
GI50 (TK-10): 45.3 µM (inactive)
GI50 (SW-620): 15.8 µM (inactive)
GI50 (HOP-62): 12.6 µM (inactive)
GI50 (OVCAR-5): 15.4 µM (inactive)
GI50 (HOP-18): 3.82 µM (inactive)
GI50 (KM-20L2): 4.57 µM (inactive)
GI50 (XF498): 43.6 µM (inactive)
GI50 (UO-31): 4.54 µM (inactive)
GI50 (OVCAR-3): 2.64 µM (inactive)
GI50 (IGROV-1): 25.8 µM (inactive)
GI50 (MOLT-4): 3.22 µM (inactive)
GI50 (SNB-78): 50.7 µM (inactive)
GI50 (SR): 3.98 µM (inactive)
GI50 (DLD-1): 9.95 µM (inactive)
GI50 (K562): 14.4 µM (inactive)
GI50 (HCC 2998): 20.3 µM (inactive)
GI50 (SN12C): 27.9 µM (inactive)
GI50 (SNB-19): 16.9 µM (inactive)
GI50 (Malme-3M): 19.5 µM (inactive)
GI50 (SK-OV-3): 20.3 µM (inactive)
GI50 (HT-29): 8.05 µM (inactive)
GI50 (SF-268): 13.5 µM (inactive)
GI50 (UACC-257): 11.4 µM (inactive)
GI50 (DMS-273): 20.5 µM (inactive)
GI50 (UACC-62): 19.5 µM (inactive)
GI50 (SF-295): 15.4 µM (inactive)
GI50 (NCI-H23): 20.4 µM (inactive)
GI50 (OVCAR-8): 22.4 µM (inactive)
GI50 (HCT-116): 5.56 µM (inactive)
GI50 (U-251): 12.8 µM (inactive)
GI50 (ACHN): 6.98 µM (inactive)
GI50 (EKVX): 4.07 µM (inactive)
GI50 (SK-MEL-28): 23.5 µM (inactive)
GI50 (NCI-H460): 4.62 µM (inactive)
GI50 (CAKI-1): 40.2 µM (inactive)
GI50 (RPMI-8226): 9.84 µM (inactive)
GI50 (CCRF-CEM): 3.17 µM (inactive)
GI50 (LOX IMVI): 12.1 µM (inactive)
GI50 (786-0): 16.8 µM (inactive)
GI50 (HL-60): 3.21 µM (inactive)
GI50 (SK-MEL-2): 17.8 µM (inactive)
GI50 (HCT-15): 5.85 µM
GI50 (M14): 14.1 µM (inactive)
GI50 (OVCAR-4): 8.81 µM (inactive)
GI50 (A549): 21.4 µM (inactive)
GI50 (M19-MEL): 19.3 µM (inactive)
GI50 (LXFL 529): 24.4 µM (inactive)
GI50 (SNB-75): 34.8 µM (inactive)
GI50 (RXF 393): 36 µM (inactive)
GI50 (COLO 205): 16.4 µM (inactive)
GI50 (NCI-H226): 10 µM (inactive)
